Assay results as given in PubChem BioAssay AID328 (DTP/NCI, 2004).
Values joined by “and” are separate entries in the source; they are usually repeats but may differ in a detail not shown here. Identical values can stand only once. Toxic doses and inconclusive results are not listed.

System: BDF1 mice, P388 leukemia ip, median survival T/C
Test: NCI In Vivo Anticancer Drug Screen. Data for tumor model P388 Leukemia (intraperitoneal) in B6D2F1 (BDF1) mice
Conditions: endpoint: median survival time, higher = longer survival
In short: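 Mice carrying the transplantable tumour receive compound or vehicle. Survival is followed in each arm, and the treated measure is divided by the vehicle measure.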

[1] = dose: 12.5 mg/kg/injection, schedule: Q01DX009 (ip), vehicle: saline
[2] = dose: 25.0 mg/kg/injection, schedule: Q01DX009 (ip), vehicle: saline
[3] = dose: 50.0 mg/kg/injection, schedule: Q01DX009 (ip), vehicle: saline
[4] = dose: 50.0 mg/kg/injection, schedule: Q04DX003 (ip), vehicle: saline
[5] = dose: 100.0 mg/kg/injection, schedule: Q01DX009 (ip), vehicle: saline
[6] = dose: 100.0 mg/kg/injection, schedule: Q04DX003 (ip), vehicle: saline
[7] = dose: 200.0 mg/kg/injection, schedule: Q04DX003 (ip), vehicle: saline
[8] = dose: 100.0 mg/kg/injection, schedule: Q04DX003 (ip), vehicle: saline with Tween-80
[9] = dose: 200.0 mg/kg/injection, schedule: Q04DX003 (ip), vehicle: saline with Tween-80
[10] = dose: 400.0 mg/kg/injection, schedule: Q04DX003 (ip), vehicle: saline with Tween-80
[11] = dose: 100.0 mg/kg/injection, schedule: Q04DX003 (ip), vehicle: Klucel (hydroxypropylcellulose) (HPC)
[12] = dose: 200.0 mg/kg/injection, schedule: Q01DX009 (ip), vehicle: saline

SMILES: COc1cc2cc(c1Cl)N(C)C(=O)C[C@H](OC(=O)CBr)[C@]1(C)O[C@@H]1[C@H](C)[C@@H]1C[C@@](O)(NC(=O)O1)[C@H](OC)C=C/C=C(\C)C2
- T/C (dose: 0.8 micrograms/kg/injection, schedule: Q01DX009 (ip), vehicle: saline + alcohol): 153 % of control
- T/C (dose: 1.5 micrograms/kg/injection, schedule: Q01DX009 (ip), vehicle: saline + alcohol): 170 % of control
- T/C (dose: 3.1 micrograms/kg/injection, schedule: Q01DX009 (ip), vehicle: saline + alcohol): 180 % of control
- T/C (dose: 6.2 micrograms/kg/injection, schedule: Q01DX009 (ip), vehicle: saline + alcohol): 183 % of control
- T/C (dose: 12.5 micrograms/kg/injection, schedule: Q01DX009 (ip), vehicle: saline + alcohol): 153 % of control and 200 % of control
- T/C (dose: 25.0 micrograms/kg/injection, schedule: Q01DX009 (ip), vehicle: saline + alcohol): 162 % of control and 210 % of control
- T/C (dose: 50.0 micrograms/kg/injection, schedule: Q01DX009 (ip), vehicle: saline + alcohol): 189 % of control and 210 % of control
- T/C (dose: 100.0 micrograms/kg/injection, schedule: Q01DX009 (ip), vehicle: saline + alcohol): 232 % of control and 120 % of control

SMILES: Oc1cc(CN(CCCl)CCCl)c(O)cc1CN(CCCl)CCCl
- T/C (dose: 0.63 mg/kg/injection, schedule: Q01DX010 (ip), vehicle: saline): 170 % of control
- T/C (dose: 1.25 mg/kg/injection, schedule: Q01DX010 (ip), vehicle: saline): 163 % of control and 210 % of control
- T/C (dose: 2.5 mg/kg/injection, schedule: Q01DX010 (ip), vehicle: saline): 177 % of control and 220 % of control
- T/C (dose: 5.0 mg/kg/injection, schedule: Q01DX010 (ip), vehicle: saline): 165 % of control

SMILES: Cc1nccnc1N
- T/C (dose: 6.25 mg/kg/injection, schedule: Q01DX009 (ip), vehicle: saline): 94 % of control
- T/C [1]: 105 % of control
- T/C [2]: 102 % of control
- T/C [3]: 102 % of control
- T/C [4]: 94 % of control
- T/C [5]: 105 % of control
- T/C [6]: 98 % of control and 102 % of control
- T/C (dose: 150.0 mg/kg/injection, schedule: Q04DX003 (ip), vehicle: saline): 88 % of control
- T/C [7]: 100 % of control and 124 % of control
- T/C (dose: 300.0 mg/kg/injection, schedule: Q04DX003 (ip), vehicle: saline): 100 % of control

SMILES: OC/C(=N/Nc1ccc2ccccc2n1)c1ccccc1
- T/C (dose: 50.0 mg/kg/injection, schedule: Q01DX009 (ip), vehicle: saline with Tween-80): 114 % of control
- T/C (dose: 100.0 mg/kg/injection, schedule: Q01DX009 (ip), vehicle: saline with Tween-80): 117 % of control
- T/C [8]: 94 % of control
- T/C (dose: 200.0 mg/kg/injection, schedule: Q01DX009 (ip), vehicle: saline with Tween-80): 115 % of control
- T/C [9]: 102 % of control
- T/C (dose: 400.0 mg/kg/injection, schedule: Q01DX009 (ip), vehicle: saline with Tween-80): 88 % of control
- T/C [10]: 101 % of control

SMILES: Cc1ccc(C)c(NC(=O)c2cccc(Cl)c2)c1
- T/C [8]: 104 % of control
- T/C [9]: 100 % of control
- T/C [10]: 104 % of control

SMILES: CCOC(=O)C1=C(Nc2ccc([N+](=O)[O-])cc2)CCCC1
- T/C [3]: 87 % of control

SMILES: O=C1CCC(N2C(=O)c3ccccc3C2=O)C(=O)N1 (stereo not given)
- T/C (dose: 100.0 mg/kg/injection, schedule: Q01DX010 (ip), vehicle: saline): 96 % of control
- T/C (dose: 200.0 mg/kg/injection, schedule: Q01DX010 (ip), vehicle: saline): 96 % of control
- T/C (dose: 400.0 mg/kg/injection, schedule: Q01DX010 (ip), vehicle: saline): 92 % of control
- T/C (dose: 800.0 mg/kg/injection, schedule: Q01DX010 (ip), vehicle: saline): 92 % of control

SMILES: CCCCC(C(C)=O)C(C)C (stereo not given)
- T/C (dose: 75.0 mg/kg/injection, schedule: Q01DX009 (ip), vehicle: Klucel (hydroxypropylcellulose) (HPC)): 90 % of control
- T/C [11]: 111 % of control
- T/C (dose: 150.0 mg/kg/injection, schedule: Q01DX009 (ip), vehicle: Klucel (hydroxypropylcellulose) (HPC)): 90 % of control
- T/C (dose: 200.0 mg/kg/injection, schedule: Q04DX003 (ip), vehicle: Klucel (hydroxypropylcellulose) (HPC)): 96 % of control
- T/C (dose: 300.0 mg/kg/injection, schedule: Q01DX009 (ip), vehicle: Klucel (hydroxypropylcellulose) (HPC)): 95 % of control
- T/C (dose: 400.0 mg/kg/injection, schedule: Q04DX003 (ip), vehicle: Klucel (hydroxypropylcellulose) (HPC)): 96 % of control

SMILES: C[n+]1ccc(Nc2ccc(NC(=O)c3ccc([N+](=O)[O-])cc3)cc2)cc1
- T/C (dose: 6.25 mg/kg/injection, schedule: Q01DX009 (ip), vehicle: water): 108 % of control
- T/C (dose: 12.5 mg/kg/injection, schedule: Q01DX009 (ip), vehicle: water): 96 % of control
- T/C (dose: 12.5 mg/kg/injection, schedule: Q04DX003 (ip), vehicle: water): 100 % of control
- T/C (dose: 25.0 mg/kg/injection, schedule: Q01DX009 (ip), vehicle: water): 90 % of control
- T/C (dose: 25.0 mg/kg/injection, schedule: Q04DX003 (ip), vehicle: water): 98 % of control and 100 % of control (2×)
- T/C (dose: 50.0 mg/kg/injection, schedule: Q01DX009 (ip), vehicle: water): 97 % of control
- T/C (dose: 100.0 mg/kg/injection, schedule: Q01DX009 (ip), vehicle: water): 107 % of control
- T/C (dose: 150.0 mg/kg/injection, schedule: Q04DX003 (ip), vehicle: water): 91 % of control

SMILES: O=[N+]([O-])c1ccc(N/N=C/CC(O)CO)c([N+](=O)[O-])c1 (stereo not given)
- T/C [5]: 100 % of control
- T/C [12]: 120 % of control

SMILES: N#CC(=Nc1cc(Cl)cc(Cl)c1)C1=C(O)c2ccccc2C1=O
- T/C (dose: 50.0 mg/kg/injection, schedule: Q01DX005 (ip), vehicle: saline with Tween-80): 101 % of control
- T/C (dose: 100.0 mg/kg/injection, schedule: Q01DX005 (ip), vehicle: saline with Tween-80): 111 % of control
- T/C (dose: 200.0 mg/kg/injection, schedule: Q01DX005 (ip), vehicle: saline with Tween-80): 101 % of control

SMILES: ClC[P+](c1ccccc1)(c1ccccc1)c1ccccc1
- T/C (dose: 3.0 mg/kg/injection, schedule: Q01DX009 (ip), vehicle: saline): 120 % of control
- T/C (dose: 6.0 mg/kg/injection, schedule: Q01DX009 (ip), vehicle: saline): 116 % of control
- T/C (dose: 12.5 mg/kg/injection, schedule: Q04DX003 (ip), vehicle: saline): 100 % of control

SMILES: O=C(CCN1CC1)OCCOC(=O)CCN1CC1
- T/C (dose: 1.5 mg/kg/injection, schedule: Q01DX009 (ip), vehicle: saline with Tween-80): 112 % of control
- T/C (dose: 16.0 mg/kg/injection, schedule: Q04DX003 (ip), vehicle: saline with Tween-80): 150 % of control
- T/C (dose: 21.0 mg/kg/injection, schedule: Q04DX003 (ip), vehicle: saline with Tween-80): 163 % of control
- T/C (dose: 33.0 mg/kg/injection, schedule: Q04DX003 (ip), vehicle: saline with Tween-80): 163 % of control
- T/C (dose: 50.0 mg/kg/injection, schedule: Q04DX003 (ip), vehicle: saline with Tween-80): 195 % of control
- T/C (dose: 75.0 mg/kg/injection, schedule: Q04DX003 (ip), vehicle: saline with Tween-80): 181 % of control

SMILES: CCN1C(=O)CN=C(c2ccccn2)c2cc(Cl)ccc21
- T/C (dose: 100.0 mg/kg/injection, schedule: Q01DX001 (ip), vehicle: Klucel (hydroxypropylcellulose) (HPC)): 90 % of control
- T/C (dose: 200.0 mg/kg/injection, schedule: Q01DX001 (ip), vehicle: Klucel (hydroxypropylcellulose) (HPC)): 104 % of control
- T/C (dose: 400.0 mg/kg/injection, schedule: Q01DX001 (ip), vehicle: Klucel (hydroxypropylcellulose) (HPC)): 95 % of control

SMILES: COc1ccc(NC(=O)C(C)C(C)=O)cc1 (stereo not given)
- T/C [1]: 91 % of control
- T/C [2]: 94 % of control
- T/C (dose: 25.0 mg/kg/injection, schedule: Q04DX003 (ip), vehicle: saline): 102 % of control
- T/C [3]: 98 % of control
- T/C [4]: 93 % of control
- T/C [5]: 116 % of control
- T/C [6]: 100 % of control
- T/C [12]: 100 % of control
- T/C [7]: 109 % of control
- T/C (dose: 400.0 mg/kg/injection, schedule: Q01DX009 (ip), vehicle: saline): 108 % of control
- T/C (dose: 400.0 mg/kg/injection, schedule: Q04DX003 (ip), vehicle: saline): 111 % of control

SMILES: COc1ccc(C(O)CNC(=O)c2ccccc2)cc1 (stereo not given)
- T/C (dose: 66.0 mg/kg/injection, schedule: Q04DX003 (ip), vehicle: Klucel (hydroxypropylcellulose) (HPC)): 109 % of control and 110 % of control
- T/C [11]: 255 % of control and 104 % of control and 115 % of control
- T/C (dose: 150.0 mg/kg/injection, schedule: Q04DX003 (ip), vehicle: Klucel (hydroxypropylcellulose) (HPC)): 109 % of control and 115 % of control

SMILES: O=C1c2c(Cl)cccc2C(O)(c2ccccc2)c2cccc(Cl)c21
- T/C (dose: 50.0 mg/kg/injection, schedule: Q01DX009 (ip), vehicle: other): 100 % of control
- T/C (dose: 100.0 mg/kg/injection, schedule: Q01DX009 (ip), vehicle: other): 92 % of control
- T/C (dose: 200.0 mg/kg/injection, schedule: Q01DX009 (ip), vehicle: other): 105 % of control
